Assay results published in patent US20120015925A1, “NOVEL BENZOTHIAZEPINE AND BENZOTHIEPINE COMPOUNDS” (ASAHI KASEI PHARMA CORPORATION, priority 2004, published 2012).

Target: T1, human IBAT transporter in which alanine at position 171 has been substituted with serine (Homo sapiens, UniProt Q12908)
T1 sequence (Q12908 1-348): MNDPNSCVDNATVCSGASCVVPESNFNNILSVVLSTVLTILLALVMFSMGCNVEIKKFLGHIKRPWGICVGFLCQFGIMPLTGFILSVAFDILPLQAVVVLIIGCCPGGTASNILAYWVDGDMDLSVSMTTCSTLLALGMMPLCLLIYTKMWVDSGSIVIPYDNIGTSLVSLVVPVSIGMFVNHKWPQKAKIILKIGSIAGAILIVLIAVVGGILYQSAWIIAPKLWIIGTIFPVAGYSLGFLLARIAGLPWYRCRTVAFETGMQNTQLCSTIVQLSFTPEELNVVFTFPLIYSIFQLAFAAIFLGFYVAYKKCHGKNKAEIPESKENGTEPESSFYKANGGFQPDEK
Assay: In vitro assay using Cos 7 cells, human IBAT with alanine 171 substituted with serine
Assay type: cell-based
Settings: 10 nM test compound

CCCCC1(CCCC)CS(=O)(=O)c2ccc(N(C)C)cc2C(c2cccc(NC(=S)CCCCC[N+]34CCC(CC3)CC4)c2)N1.[Br-] (stereo not shown) [EXAMPLE 1, 1-{5-[3-(3,3-dibutyl-7-dimethylamino-1,1-dioxo-2,3,4,5-tetrahydro-1,4-benzothiazepine-5-yl)phenylthiocarbamoyl]pentyl}-1-azoniabicyclo[2.2.2]octane bromide]
Cos 7 WITH HUMAN IBAT IN WHICH 171ST ALANINE IS SUBSTITUTED WITH SERINE INHIBITION (%) AT TEST COMPOUND CONCENTRATION OF 10 nM: 53%
